Measurements from patent publication US8030354B2, “Substituted biphenyl GPR40 modulators” (Amgen Inc., priority 2007, dated 2011).

Molecular target: GPR40 (Homo sapiens, UniProt O14842)
Experiment: Cell-based aequorin assay (CHO cells stably expressing GPR40 and aequorin)
Parameters: expressed in transfected cells; host or cells: CHO cells stably transfected with GPR40 and aequorin
Conditions: activation of human GPR40, CHO cells, 0.01% HSA
Summary of the method: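 CHO cells stably co-expressing GPR40 and aequorin, loaded with coelenterazine (1 ug/mL, 2 h, room temperature) in H/HBSS with 20 mM Hepes and 0.01% fatty acid-free HSA. Serially diluted compounds added; luminescence recorded over 20 s. EC50 from dose-response of maximum relative light units.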

Chain of GPR40 (O14842 whole entry): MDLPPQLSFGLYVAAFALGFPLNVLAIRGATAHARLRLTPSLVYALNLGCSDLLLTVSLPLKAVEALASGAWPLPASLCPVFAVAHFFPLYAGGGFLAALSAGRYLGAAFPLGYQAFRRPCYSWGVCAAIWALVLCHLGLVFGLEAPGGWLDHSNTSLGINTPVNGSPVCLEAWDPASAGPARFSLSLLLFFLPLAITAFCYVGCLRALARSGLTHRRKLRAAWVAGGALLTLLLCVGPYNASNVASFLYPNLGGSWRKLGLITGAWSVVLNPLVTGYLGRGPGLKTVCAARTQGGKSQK

Row | SMILES | EC50 [µM]
1 | COc1ccc(F)c(-c2ccc(COc3cccc([C@@H](CC(=O)O)CC4CC4)c3)cc2S(=O)(=O)C(C)C)c1 (single isomer, unassigned) [Example 69.25, (R)-4-Cyclopropyl-3-{3-[2′-fluoro-5′-methoxy-2-(propane-2-sulfonyl)-biphenyl-4-ylmethoxy]-phenyl}-butyric acid or (S)-4-cyclopropyl-3-{3-[2′-fluoro-5′-methoxy-2-(propane-2-sulfonyl)-biphenyl-4-ylmethoxy]-phenyl}-butyric acid] | 1 to 10
2 | COc1ccc(F)c(-c2ccc(COc3cccc([C@@H](CC(=O)O)CC4CC4)c3)cc2[S+]([O-])C(C)C)c1 (single isomer, unassigned) [Example 69.26, (R)-4-Cyclopropyl-3-{3-[2′-fluoro-5′-methoxy-2-(propane-2-sulfinyl)-biphenyl-4-ylmethoxy]-phenyl}-butyric acid or (S)-4-cyclopropyl-3-{3-[2′-fluoro-5′-methoxy-2-(propane-2-sulfinyl)-biphenyl-4-ylmethoxy]-phenyl}-butyric acid] | 1 to 10
3 | COc1ccc(F)c(-c2ccc(COc3cccc(C(CC(=O)O)CC4CC4)c3)cc2C2OCCCC2(C)C)c1 (single isomer, unassigned) [Example 69.27, (R)-4-Cyclopropyl-3-{3-[2-(3,3-dimethyl-tetrahydro-pyran-2-yl)-2′-fluoro-5′-methoxy-biphenyl-4-ylmethoxy]-phenyl}-butyric acid or (S)-4-cyclopropyl-3-{3-[2-(3,3-dimethyl-tetrahydro-pyran-2-yl)-2′-fluoro-5′-methoxy-biphenyl-4-ylmethoxy]-phenyl}-butyric acid] | 0.1 to 1
4 | CCOCc1cc(COc2cccc(C(CC(=O)O)CC3CC3)c2)ccc1-c1cc(OC)ccc1F (single isomer, unassigned) [Example 69.37, (3R)-4-Cyclopropyl-3-(3-(((2-((ethyloxy)methyl)-2′-fluoro-5′-(methyloxy)-1,1′-biphenyl-4-yl)methyl)oxy)phenyl)butanoic acid or (3S)-4-cyclopropyl-3-(3-(((2-((ethyloxy)methyl)-2′-fluoro-5′-(methyloxy)-1,1′-biphenyl-4-yl)methyl)oxy)phenyl)butanoic acid] | 1 to 10
5 | C=CC(C)(C)[C@H](OC)c1cc(COc2cccc([C@@H](CC(=O)O)CC3CC3)c2)ccc1-c1cc(OC)ccc1F (single isomer, unassigned) [Example 69.39] | 1 to 10
6 | C=CC(C)(C)C(O)c1cc(COc2cccc(C(CC(=O)O)CC3CC3)c2)ccc1-c1cc(OC)ccc1F (single isomer, unassigned) [Example 69.40] | 1 to 10
7 | CCC(C)(C)C(OC)c1cc(COc2cccc(C(CC(=O)O)CC3CC3)c2)ccc1-c1cc(OC)ccc1F (single isomer, unassigned) [Example 69.41, (3R)-4-Cyclopropyl-3-(3-(((2-((1S)-2,2-dimethyl-1-(methyloxy)butyl)-2′-fluoro-5′-(methyloxy)-1,1′-biphenyl-4-yl)methyl)oxy)phenyl)butanoic acid or (3R)-4-cyclopropyl-3-(3-(((2-((1S)-2,2-dimethyl-1-(methyloxy)butyl)-2′-fluoro-5′-(methyloxy)-1,1′-biphenyl-4-yl)methyl)oxy)phenyl)butanoic acid] | 0.1 to 1
8 | COc1ccc(F)c(-c2ccc(COc3cccc([C@@H](CC(=O)O)CC4CC4)c3)cc2[C@@H]2OCCC2(C)C)c1 (single isomer, unassigned) [Example 69.43] | 1 to 10
9 | COc1ccc(F)c(-c2ccc(COc3cccc(C(CC(=O)O)CC4CC4)c3)cc2COCC=C(C)C)c1 (single isomer, unassigned) [Example 69.45, (3R)-4-Cyclopropyl-3-(3-(((2′-fluoro-2-(((3-methyl-2-butenyl)oxy)methyl)-5′-(methyloxy)-1,1′-biphenyl-4-yl)methyl)oxy)phenyl)butanoic acid or (3S)-4-cyclopropyl-3-(3-(((2′-fluoro-2-(((3-methyl-2-butenyl)oxy)methyl)-5′-(methyloxy)-1,1′-biphenyl-4-yl)methyl)oxy)phenyl)butanoic acid] | 1 to 10
10 | COc1ccc(F)c(-c2ccc(COc3cccc(C(CC(=O)O)CC4CC4)c3)cc2CN2CCCC2)c1 (single isomer, unassigned) [Example 69.46, (3R)-4-Cyclopropyl-3-(3-(((2′-fluoro-5′-(methyloxy)-2-(1-pyrrolidinylmethyl)-1,1′-biphenyl-4-yl)methyl)oxy)phenyl)butanoic acid or (3S)-4-cyclopropyl-3-(3-(((2′-fluoro-5′-(methyloxy)-2-(1-pyrrolidinylmethyl)-1,1′-biphenyl-4-yl)methyl)oxy)phenyl)butanoic acid] | 1 to 10
11 | COc1ccc(F)c(-c2ccc(COc3cccc(C(CC(=O)O)CC4CC4)c3)cc2CN2[C@H](C)CC[C@H]2C)c1 (single isomer, unassigned) [Example 69.47, (3R)-4-Cyclopropyl-3-(3-(((2-(((2R,5R)-2,5-dimethyl-1-pyrrolidinyl)methyl)-2′-fluoro-5′-(methyloxy)-1,1′-biphenyl-4-yl)methyl)oxy)phenyl)butanoic acid or (3S)-4-cyclopropyl-3-(3-(((2-(((2R,5R)-2,5-dimethyl-1-pyrrolidinyl)methyl)-2′-fluoro-5′-(methyloxy)-1,1′-biphenyl-4-yl)methyl)oxy)phenyl)butanoic acid] | 0.1 to 1
12 | COc1ccc(F)c(-c2ccc(COc3cccc(C(CC(=O)O)CC4CC4)c3)cc2CN2CCCCCC2)c1 (single isomer, unassigned) [Example 69.48, (3R)-3-(3-(((2-(1-Azepanylmethyl)-2′-fluoro-5′-(methyloxy)-1,1′-biphenyl-4-yl)methyl)oxy)phenyl)-4-cyclopropylbutanoic acid or (3S)-3-(3-(((2-(1-azepanylmethyl)-2′-fluoro-5′-(methyloxy)-1,1′-biphenyl-4-yl)methyl)oxy)phenyl)-4-cyclopropylbutanoic acid] | 1 to 10
13 | COC[C@H](CC(=O)O)c1cccc(OCc2ccc(-c3cc(OC)ccc3F)c(C3=CCCC3(C)C)c2)c1 (single isomer, unassigned) [Example 74, (3R)-3-(3-(((2-(5,5-Dimethyl-1-cyclopenten-1-yl)-2′-fluoro-5′-(methyloxy)-1,1′-biphenyl-4-yl)methyl)oxy)phenyl)-4-(methyloxy)butanoic acid or (3S)-3-(3-(((2-(5,5-dimethyl-1-cyclopenten-1-yl)-2′-fluoro-5′-(methyloxy)-1,1′-biphenyl-4-yl)methyl)oxy)phenyl)-4-(methyloxy)butanoic acid] | 1 to 10
14 | CCC=C[C@H](CC(=O)O)c1cccc(OCc2ccc(-c3cc(OC)ccc3F)c(C(C)(C)C)c2)c1 (single isomer, unassigned) [Example 75, (3S)-3-(3-(((2-(1,1-Dimethylethyl)-2′-fluoro-5′-(methyloxy)-1,1′-biphenyl-4-yl)methyl)oxy)phenyl)-4-heptenoic acid or (3R)-3-(3-(((2-(1,1-dimethylethyl)-2′-fluoro-5′-(methyloxy)-1,1′-biphenyl-4-yl)methyl)oxy)phenyl)-4-heptenoic acid] | 0.1 to 1

The remaining lines, values ahead:

Row | EC50 [µM] | SMILES
15 | 0.1 to 1 | CCCCC(CC(=O)O)c1cccc(OCc2ccc(-c3cc(OC)ccc3F)c(C(C)(C)C)c2)c1 (single isomer, unassigned) [Example 71.1, (3R)-3-(3-(((2-(1,1-Dimethylethyl)-2′-fluoro-5′-(methyloxy)-1,1′-biphenyl-4-yl)methyl)oxy)phenyl)heptanoic acid or (3S-3-(3-(((2-(1,1-dimethylethyl)-2′-fluoro-5′-(methyloxy)-1,1′-biphenyl-4-yl)methyl)oxy)phenyl)heptanoic acid]
16 | 1 to 10 | CCC(CC(=O)O)c1cc(OCc2ccc(-c3cc(OC)ccc3F)c(C(C)(C)C)c2)ccc1F (single isomer, unassigned) [Example 76.2, (3R)-3-(5-(((2-(1,1-Dimethylethyl)-2′-fluoro-5′-(methyloxy)-1,1′-biphenyl-4-yl)methyl)oxy)-2-fluorophenyl)pentanoic acid or (3S)-3-(5-(((2-(1,1-dimethylethyl)-2′-fluoro-5′-(methyloxy)-1,1′-biphenyl-4-yl)methyl)oxy)-2-fluorophenyl)pentanoic acid]
17 | 1 to 10 | CC[C@H](CC(=O)O)c1cccc(OCc2ccc(-c3cc(OC)ncc3F)c(C3(COC)CCCC3)c2)c1F (single isomer, unassigned) [Example 77.12, (3R)-3-(3-(4-(5-Fluoro-2-methoxypyridin-4-yl)-3-(1-(methoxymethyl)cyclopentyl)benzyloxy)-2-fluorophenyl)pentanoic acid or (3S)-3-(3-(4-(5-fluoro-2-methoxypyridin-4-yl)-3-(1-(methoxymethyl)cyclopentyl)benzyloxy)-2-fluorophenyl)pentanoic acid]
18 | 0.1 to 1 | CCC(CC(=O)O)c1cccc(OCc2ccc(-c3cc(OC)ccc3F)c(C3CCCC3(C)C)c2)c1 (single isomer, unassigned) [Example 78.3]
19 | 0.1 to 1 | CC[C@H](CC(=O)O)c1cccc(OCc2ccc(-c3cccc(OC)c3)c([C@@H]3CCCC3(C)C)c2)c1 (single isomer, unassigned) [Example 78.5]
20 | 1 to 10 | CCOCc1cc(COc2cccc(C(CC)CC(=O)O)c2)ccc1-c1cc(OC)ccc1F (single isomer, unassigned) [Example 78.12, (3R)-3-(3-(((2-((Ethyloxy)methyl)-2′-fluoro-5′-(methyloxy)-1,1′-biphenyl-4-yl)methyl)oxy)phenyl)pentanoic acid or (3S)-3-(3-(((2-((ethyloxy)methyl)-2′-fluoro-5′-(methyloxy)-1,1′-biphenyl-4-yl)methyl)oxy)phenyl)pentanoic acid]
21 | 1 to 10 | C=CC(C)(C)C(OC)c1cc(COc2cccc(C(CC)CC(=O)O)c2)ccc1-c1cc(OC)ccc1F (single isomer, unassigned) [Example 78.13]
22 | 0.1 to 1 | COc1cccc(-c2ccc(COc3cccc(C(CC(=O)O)C4CCC4)c3)cc2C2CCCC2(C)C)c1 (single isomer, unassigned) [Example 79.5]
